In one assay the target is c-MET (Homo sapiens, UniProt P08581). Put plainly: MET luminescence-based enzyme assay (Kinase-Glo). In kind it is biochemical. The method, then: The subscript designates positive or negative controls. The Z′ score for a robust screening assay should be ≧0.50. The typical threshold=μ+−3*σ+. Any value that falls below the threshold was designated a “hit”.
MET Luminescence-Based Enzyme Assay
MET kinase (see below), Kinase-Glo™ (Promega Cat#V6712).
Negative controls contained 10 μM staurosporine.
On the technique in general: Kinase-Glo reads ATP consumption through a luciferase reaction.

For another assay, the system named is GTL16 cells. Put plainly: 96-well XTT cell survival assay (GTL16 cells). In kind it is cell-based. The conditions noted are these: Homo sapiens, GTL 16, 72 hours. On the procedure:
GTL16 cells were maintained in DMEM Medium supplemented with 10% fetal bovine serum (FBS) 2 mM L-Glutamine and 100 units penicillin/100 μg streptomycin, at 37° C. in 5% CO2.
Compounds were tested in the following assays in duplicate.
96-well XTT assay (GTL16 cells): One day prior to assay the growth media was aspirated off and assay media was added to cells. On the day of the assay, the cells were grown in assay media containing various concentrations of compounds (duplicates) on a 96-well flat bottom plate for 72 hours at 37° C. in 5% CO2. The starting cell number was 5000 cells per well and volume was 120 μl. At the end of the 72-hour incubation, 40 μl of XTT labeling mixture (50:1 solution of sodium 3′-[1-(phenylaminocarbonyl)-3,4-tetrazolium]-bis (4-methoxy-6-nitro) benzene sulfonic acid hydrate and Electron-coupling reagent: PMS (N-methyl dibenzopyrazine methyl sulfate) were added to each well of the plate. After an additional 5 hours of incubation at 37° C., the absorbance reading at 450 nm with a background correction of 650 nm was measured with a spectrophotometer.
In general terms: Formazan colour is commonly taken as a measure of viable cells.

Structures can show the parent of a compound that is named as a salt. A value given as a limit tells only on which side of the number the result lay.

Chain of c-MET (P08581 1078-1345 limits assumed): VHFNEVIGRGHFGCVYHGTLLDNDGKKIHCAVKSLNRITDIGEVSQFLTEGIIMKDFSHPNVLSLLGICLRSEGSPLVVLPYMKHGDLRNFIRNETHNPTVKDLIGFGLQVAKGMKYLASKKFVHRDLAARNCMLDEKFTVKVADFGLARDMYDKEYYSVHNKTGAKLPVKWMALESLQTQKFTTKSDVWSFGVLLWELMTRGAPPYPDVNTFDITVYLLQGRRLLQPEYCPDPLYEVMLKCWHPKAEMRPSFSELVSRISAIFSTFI

What is called IC50 is the concentration needed to halve the response being measured. Higher therefore signals weaker potency. `CCc1ccnc2ccc(Sc3nnc4ccc(-c5cnn(C)c5)nn34)cc12` [Compound 60, 4-Ethyl-6-[6-(1-methyl-1H-pyrazol-4-yl)-[1,2,4]triazolo[4,3-b]pyridazin-3-ylsulfanyl]-quinoline]: the IC50 on c-MET is < 100 nM; in the assay with GTL16 cells, ≤ 100 nM.
In the same order, the values of `Cn1cc(-c2cnc3ccc(Sc4nnc5ccc(-c6cnn(C)c6)nn45)cc3c2)cn1` [Compound 40, 3-(1-Methyl-1H-pyrazol-4-yl)-6-[6-(1-methyl-1H-pyrazol-4-yl)-[1,2,4]triazolo[4,3-b]pyridazin-3-ylsulfanyl]-quinoline] are < 100 nM and ≤ 100 nM.
For the molecule `Fc1cccc(-c2ccc3nnc(Sc4ccc5ncccc5c4)n3n2)c1` [Compound 5, 6-[6-(3-Fluoro-phenyl)-[1,2,4]triazolo[4,3-b]pyridazin-3-ylsulfanyl]-quinoline], the IC50 on c-MET was < 100 nM; in the assay on GTL16 cells it was ≤ 100 nM.
Turning to `Cn1cc(-c2ccc3nnc(Sc4ccc5ncccc5c4[N+](=O)[O-])n3n2)cn1` [Compound 13, 6-[6-(1-Methyl-1H-pyrazol-4-yl)-[1,2,4]triazolo[4,3-b]pyridazin-3-ylsulfanyl]-5-nitro-quinoline], the IC50 against c-MET and with GTL16 cells was 100 to 1000 nM each time.
Turning to `COc1ccnc2ccc(Sc3nnc4ccc(-c5cnn(C)c5)nn34)cc12` [Compound 26, 4-Methoxy-6-[6-(1-methyl-1H-pyrazol-4-yl)-[1,2,4]triazolo[4,3-b]pyridazin-3-ylsulfanyl]-quinoline], the 50% inhibitory concentration (IC50) against c-MET was < 100 nM; in the assay with GTL16 cells, ≤ 100 nM.
Turning to `Cn1cc(-c2ccc3nnc(Sc4cc5cccnc5cc4F)n3n2)cn1` [Compound 10, 7-Fluoro-6-[6-(1-methyl-1H-pyrazol-4-yl)-[1,2,4]triazolo[4,3-b]pyridazin-3-ylsulfanyl]-quinoline], the IC50 was < 100 nM against c-MET and ≤ 100 nM with GTL16 cells.
On the same counts, the results for `Cc1ccc2nnc(Sc3ccc4ncc(-c5cnn(C6CN(C(=O)OC(C)(C)C)C6)c5)cc4c3)n2n1` [Compound 64, 3-{4-[6-(6-Methyl-[1,2,4]triazolo[4,3-b]pyridazin-3-ylsulfanyl)-quinolin-3-yl]-pyrazol-1-yl}-azetidine-1-carboxylic acid tert-butyl ester] are < 100 nM and ≤ 100 nM.
On the same counts, the results for `Cn1cc(-c2ccc3nnc(Sc4ccc5ncc(N)cc5c4)n3n2)cn1` [Compound 33, 6-[6-(1-Methyl-1H-pyrazol-4-yl)-[1,2,4]triazolo[4,3-b]pyridazin-3-ylsulfanyl]-quinolin-3-ylamine, trifluoroacetic acid salt] are < 100 nM and ≤ 100 nM.
On the same counts, the results for `CN(C)CCn1cnc2ccc(Sc3nnc4ccc(-c5cnn(C)c5)nn34)cc21` [Compound 32, Dimethyl-(2-{6-[6-(1-methyl-1H-pyrazol-4-yl)-[1,2,4]triazolo[4,3-b]pyridazin-3-ylsulfanyl]-benzoimidazol-1-yl}-ethyl)-amine, formic acid salt] are 100 to 1000 nM and 1000 to 10000 nM.

For the origin of these results see patent US8507489B2, “Bicyclic triazoles as protein kinase modulators” (SGX Pharmaceuticals, Inc., priority 2006, dated 2013).
